Measured values from EP0126483A2, “Deodorant” (Eduard Gerlach GmbH Chemische Fabrik, priority 1983, dated 1984).

The compounds below were run on Achsel- und Fußschweiß. Conditions: 3 %ige Lösung in Alkohol/Wassergemisch.
From the text: Die Wirksamkeit der in der Beschreibung genannte Verbindungen wurde folgendermaßen ermittelt: • 1) Die Versuchspersonen, 10 männliche und 10 weibliche Probanden, benutzten zur Körperreinigung ein von bakteriziden und fungiziden Stoffen freies Duschbad. Die linke Achselhöhle und der linke Fuß, insbesondere die Partien zwischen den Zehen, wurden mit einem Präparat gemäß den Beispielen behandelt. Die rechte Achselhöhle und der rechte Fuß wurden nicht behandelt. Die Prüfung erfolgte nach 12 und 24 Stunden durch die Versuchsansteller, indem jeweils ein geruchsfreies Mullkissen aus 4 Lagen Verbandmull mit den behandelten und unbehandelten Stellen in intensive Berührung durch Reiben gebracht wurde. Anschließend prüften die Tester den Geruch der Kissen selbst. […] Sie wurden verpflichtet, kein anderes desodorierendes Präparat, sei es ein kosmetisches Spezialpräparat oder eine sogenannte "Deo-Seife" zu benutzen.

How did the “Desodorierung des Achsel- und Fußschweißes” value turn out when CC(C)(CO)C(O)C(=O)NCCCO (centres unmarked) [Panthenol, N-Propanolamid der 1,3-Dihydroxy-2,2-Dimethylbuttersäure, reference compound] was run?
Its value is “befriedigende Desodorierung”.

Same assay, conditions: 3 bis 5 % in a deodorant preparation; time after application

With CC(=O)NCCO [Essigsäuremonoethanolamid] as the compound, how does the “anhaltender Schutz vor der Bildung unangenehmer Zersetzungsprodukte des Achsel- und Fußschweißes” value read?
Its value is ≤ 24 Stunden.

Same assay, conditions: 5 % in Alkohol/Wassergemisch; also in strongly perspiring persons

With CC(C)(CO)C(O)C(=O)NCCCO (centres unmarked) [Panthenol, N-Propanolamid der 1,3-Dihydroxy-2,2-Dimethylbuttersäure, reference compound] as the compound, how does the “Desodorierung des Achsel- und Fußschweißes” value read?
Its value is “optimal”.

Same assay, conditions: in vivo

Which Hautfreundlichkeit does the source give for CC(C)(CO)C(O)C(=O)NCCCO (centres unmarked) [Panthenol, N-Propanolamid der 1,3-Dihydroxy-2,2-Dimethylbuttersäure, reference compound] here?
The Hautfreundlichkeit was “hervorragender”.

Same assay, conditions: result in words; concentration not given

How did the “desodorierende Wirksamkeit” value turn out when O=C1CC(=O)NC(=O)N1 [Malonylharnstoff(Barbitursäure), Malonylharnstoff] was run?
Its value is “Wirksam”.

For CCOC(N)=O [Urethan], which “desodorierende Wirksamkeit” value is on record?
Its value is “Wirksam”.

With Ethanolamide der Zitronensäure as the compound, how does the “desodorierende Wirksamkeit” value read?
Its value is “Erfolgreich getestet”.

How did the “desodorierende Wirksamkeit” value turn out when CC(O)C(=O)NCCO (centres unmarked) [Ethanolamide der Milchsäure] was run?
Its value is “Die gleiche Eigenschaft”.

NC(=O)NC(N)=O [Biuret] was tested. Which “desodorierende Wirksamkeit” value did it give?
Its value is “Wirksam”.

For O=C(O)CNC(=O)c1ccccc1 [Hippursäure], which “desodorierende Wirksamkeit” value is on record?
Its value is “Wirksam”.

With NC(N)=O [Harnstoff, reference compound] as the compound, how does the “desodorierende Wirksamkeit” value read?
Its value is “mit bestem Erfolg”.

CCC(=O)NCCO [Ethanolamide der Propionsäure] was tested. Which “desodorierende Wirksamkeit” value did it give?
Its value is “Die gleiche Eigenschaft”.

With Ethanolamide der Malonsäure as the compound, how does the “desodorierende Wirksamkeit” value read?
The value was “Erfolgreich getestet”.

Which “desodorierende Wirksamkeit” value does the source give for Ethanolamide der Bernsteinsäure here?
The value was “Erfolgreich getestet”.

With Ethanolamide der Glutarsäure as the compound, how does the “desodorierende Wirksamkeit” value read?
Its value is “Erfolgreich getestet”.

How did the “desodorierende Wirksamkeit” value turn out when Ethanolamide der Weinsäure was run?
The value was “Erfolgreich getestet”.

How did the “desodorierende Wirksamkeit” value turn out when Ethanolamide der Adipinsäure was run?
Its value is “Erfolgreich getestet”.

How did the “desodorierende Wirksamkeit” value turn out when CC(=O)NCC(=O)O [N-Acetylglycin (Acetursäure), N-Acetylglycin] was run?
Its value is “gute Wirkstoffe”.

How did the “desodorierende Wirksamkeit” value turn out when NC(=O)NCCO [ß-Hydroxiethylharnstoff] was run?
The value was “Sehr wirksam”.

For CC(=O)NCCO [Essigsäuremonoethanolamid], which “desodorierende Wirksamkeit” value is on record?
Its value is “besonders kräftiger Wirkstoff”.
